# Tests used:
# SpmX (ΔTM) = target: T1, SpmX (ΔTM) (Caulobacter vibrioides, UniProt A0A0H3C9Y4); assay: fluorescence microscopy of condensate dissolution; conditions: 5 μM protein, 5% Cy3 labelled; 5 mM MgCl2, 100 mM KCl, pH 7.4, 1 hour; solute effect on phase separation, no binding constant
# T1 construct: cytoplasmic portion, AA 1 to 355 of 431, C-terminal TEV-His10 cleaved; E. coli BL21(DE3)
# PopZ = target: T2, PopZ (Caulobacter vibrioides, UniProt A0A0H3C7Y4); assay: fluorescence microscopy of condensate dissolution; conditions: 5 μM protein, 1% Atto488 labelled; 5 mM MgCl2, 100 mM KCl, pH 7.4, 1 hour; solute effect on phase separation, no binding constant
# T2 construct: full length, AA 1 to 177, C-terminal TEV-His6 cleaved; E. coli BL21(DE3)
# T2 sequence (A0A0H3C7Y4 entry or part of it): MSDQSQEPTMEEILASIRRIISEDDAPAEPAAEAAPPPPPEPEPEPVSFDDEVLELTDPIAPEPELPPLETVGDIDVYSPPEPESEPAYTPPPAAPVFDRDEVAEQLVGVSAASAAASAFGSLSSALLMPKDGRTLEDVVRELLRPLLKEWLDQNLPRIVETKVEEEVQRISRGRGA
# T1 sequence (A0A0H3C9Y4 entry or part of it, stated change not applied): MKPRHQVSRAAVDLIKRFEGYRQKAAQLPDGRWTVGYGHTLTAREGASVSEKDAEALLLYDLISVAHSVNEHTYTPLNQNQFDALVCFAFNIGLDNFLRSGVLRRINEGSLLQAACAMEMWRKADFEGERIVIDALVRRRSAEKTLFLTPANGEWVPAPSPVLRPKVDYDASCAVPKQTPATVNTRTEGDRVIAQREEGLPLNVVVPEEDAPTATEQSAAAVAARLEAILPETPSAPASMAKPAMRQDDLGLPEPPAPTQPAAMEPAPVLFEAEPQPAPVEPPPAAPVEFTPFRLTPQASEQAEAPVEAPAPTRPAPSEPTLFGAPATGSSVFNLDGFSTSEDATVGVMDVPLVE
smiles,measurement,setting,value
Nc1ncnc2c1ncn2[C@@H]1O[C@H](COP(=O)(O)OP(=O)(O)OP(=O)(O)O)[C@@H](O)[C@H]1O [ATP],dissolution concentration of condensates,SpmX (ΔTM),2 mM
same,dissolution concentration of condensates,PopZ,1 mM

# Reference: paper PMC8849385, “ATP-responsive biomolecular condensates tune bacterial kinase signaling” (Science Advances, 2022)
